The source of these data is ChEMBL document CHEMBL4825757, “Optimization of 4,6-Disubstituted Pyrido[3,2-d]pyrimidines as Dual MNK/PIM Inhibitors to Inhibit Leukemia Cell Growth” (J Med Chem, 2021).

As usually defined, the inhibition is the drop in the measured response relative to a control, in per cent. Lower therefore signals a weak effect. One may read the bioavailability as the share of a dose that reaches the circulation, judged against a reference dose that is usually intravenous. A higher bioavailability goes with good availability. By IC50 is commonly meant the concentration that inhibits the measured activity by half. For orientation: Cmax means the highest concentration seen after dosing. The term GI50 denotes the concentration giving 50% growth inhibition.

The target in series [1] is Receptor tyrosine-protein kinase erbB-2 (Homo sapiens, UniProt P04626). Description: Inhibition of wild-type human partial length ERBB2 (K646 to V1225 residues) expressed in mammalian expression system at 1 uM by Kinomescan method relative to control.
A short description of series [2]: Oral bioavailability in Sprague Dawley rat at 10 mg/kg measured after 24 hrs. It is filed as ADME, organism-based. Conditions: in vivo.
The target in series [3] is Serine/threonine-protein kinase pim-1 (Homo sapiens, UniProt P11309). Nature of the series: Inhibition of full length recombinant human PIM1 using KKRNRTLTV as substrate incubated for 40 mins in presence of [gamma33P]ATP by scintillation counting based radiometry assay.
A short description of series [4]: Cmax in Sprague Dawley rat at 10 mg/kg, ip measured after 24 hrs. More on the design: route intraperitoneal, time 24 hrs, dose 10 mg/kg. Conditions: in vivo. It is filed as ADME, organism-based.
The subject of another series is K562. Description: Antiproliferative activity against human K562 cells assessed as reduction of cell viability incubated for 72 hrs by trypan blue staining based cell counting analysis. It is filed as functional.

Sequence of Receptor tyrosine-protein kinase erbB-2 (P04626 whole entry, the tested form may be a part): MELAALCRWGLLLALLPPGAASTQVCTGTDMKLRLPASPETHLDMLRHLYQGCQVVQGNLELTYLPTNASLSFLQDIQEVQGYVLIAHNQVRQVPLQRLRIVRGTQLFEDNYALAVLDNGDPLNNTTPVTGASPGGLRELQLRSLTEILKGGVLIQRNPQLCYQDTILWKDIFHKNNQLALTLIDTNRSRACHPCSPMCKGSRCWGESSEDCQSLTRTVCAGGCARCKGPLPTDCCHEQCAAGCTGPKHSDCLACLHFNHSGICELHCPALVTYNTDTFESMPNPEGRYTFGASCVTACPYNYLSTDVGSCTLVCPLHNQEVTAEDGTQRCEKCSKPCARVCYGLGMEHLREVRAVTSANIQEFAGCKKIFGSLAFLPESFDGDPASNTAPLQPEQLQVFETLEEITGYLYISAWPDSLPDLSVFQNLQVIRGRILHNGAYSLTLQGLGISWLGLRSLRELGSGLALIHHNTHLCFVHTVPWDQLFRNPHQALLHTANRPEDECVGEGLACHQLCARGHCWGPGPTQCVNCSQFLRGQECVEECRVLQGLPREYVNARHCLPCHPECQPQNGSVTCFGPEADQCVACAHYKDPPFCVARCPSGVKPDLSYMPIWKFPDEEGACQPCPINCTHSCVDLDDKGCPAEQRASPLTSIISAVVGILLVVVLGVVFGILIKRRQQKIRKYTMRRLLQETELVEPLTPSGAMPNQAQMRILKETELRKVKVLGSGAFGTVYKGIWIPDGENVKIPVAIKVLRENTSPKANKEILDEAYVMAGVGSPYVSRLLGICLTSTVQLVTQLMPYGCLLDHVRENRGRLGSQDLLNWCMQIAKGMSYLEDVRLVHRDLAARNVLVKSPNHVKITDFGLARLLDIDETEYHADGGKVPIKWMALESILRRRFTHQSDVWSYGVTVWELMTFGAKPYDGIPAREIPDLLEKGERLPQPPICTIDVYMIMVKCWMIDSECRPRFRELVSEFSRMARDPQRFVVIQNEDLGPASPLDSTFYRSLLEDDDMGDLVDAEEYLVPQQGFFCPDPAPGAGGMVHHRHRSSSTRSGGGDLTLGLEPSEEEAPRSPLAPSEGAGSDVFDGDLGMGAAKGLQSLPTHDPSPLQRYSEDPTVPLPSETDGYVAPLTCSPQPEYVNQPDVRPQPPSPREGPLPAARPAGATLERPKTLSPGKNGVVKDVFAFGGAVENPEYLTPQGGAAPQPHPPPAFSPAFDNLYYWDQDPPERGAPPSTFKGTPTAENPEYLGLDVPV
Sequence of Serine/threonine-protein kinase pim-1 (P11309 whole entry): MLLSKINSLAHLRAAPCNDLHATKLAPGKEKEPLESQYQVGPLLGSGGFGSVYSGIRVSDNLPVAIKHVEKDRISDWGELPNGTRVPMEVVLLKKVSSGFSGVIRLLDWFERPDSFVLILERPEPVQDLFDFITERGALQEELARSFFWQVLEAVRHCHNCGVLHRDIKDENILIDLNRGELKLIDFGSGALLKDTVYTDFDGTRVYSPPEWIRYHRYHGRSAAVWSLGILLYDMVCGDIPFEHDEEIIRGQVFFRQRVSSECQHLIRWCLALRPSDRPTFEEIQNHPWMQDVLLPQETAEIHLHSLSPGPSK

The compound `CC(C)Oc1cc(F)ccc1Nc1ncnc2ccc(-c3ccc(C(=O)N4CCNCC4)cc3)nc12` registered an inhibition in series [1] of 60%. Also, the bioavailability in series [2] came out at 35.5%. The IC50 in series [3] is 0.043 µM. Besides, the Cmax in series [4] came out at 405 ng/mL. Moreover, the GI50 in the series on K562 was 2.19 µM.
